Five molecules from EP0034120A1, “Derivatives of phenoxy-phenoxy-carboxylic acids” (CIBA-GEIGY AG, priority 1980, dated 1981) can be followed below.

What all share (assay type): in vivo
The test system of one test is Reis. Description: Herbicidal action, pre-emergent application (greenhouse). To be noted: after 3 weeks. More on the design: key: 1 Pflanze abgestorben; 2-4 schwere Schädigung; 3: 2-4 schwere Schädigung; 2-4 schwere Schädigung; 5, 6 mittlere Schäden; 5, 6 mittlere Schäden; 7, 8 leichte Schäden; 7, 8 leichte Schäden; 9 Pflanze gedeiht normal, wie unbehandelte Kontrollpflanze. Here is the method:
(§1) wurde durchfolgende Versuche ermittelt: Herbizide Wirkung bei Applikation der Wirkstoffe vor dem Auflaufen der Pflanzen (pre-emergent) Im Gewächshaus werden Pflanzensamen in Blumentöpfe von ca. 11 cm Durchmesser gesät. […] Die Töpfe werden dann im Gewächshaus unter optimalen Bedingungen für das Pflanzenwachstum, regelmässiges Bewässern, einer Temperatur von 22-25°C und 50-70% relativer Luftfeuchtigkeit gehalten. Der Versuch wird nach 3 Wochen abgebrochen und der Zustand der Pflanzen gemäss dem folgenden EWRC (European Weed Research Councel) Bewertungsschema registriert: • 1 Pflanze abgestorben • 2-4 schwere Schädigung • 5, 6 mittlere Schäden • 7, 8 leichte Schäden • 9 Pflanze gedeiht normal, wie unbehandelte Kontrollpflanze.

A further test deals with Weizen. The test is described as above. More on the design: key: 1 Pflanze abgestorben; 2-4 schwere Schädigung; 3: 2-4 schwere Schädigung; 2-4 schwere Schädigung; 5, 6 mittlere Schäden; 5, 6 mittlere Schäden; 7, 8 leichte Schäden; 7, 8 leichte Schäden; 9 Pflanze gedeiht normal, wie unbehandelte Kontrollpflanze. To be noted: after 3 weeks. Here is the method: as §1
The subject of another test is abutilon sp. Described as above. Details: key: 1 Pflanze abgestorben; 2-4 schwere Schädigung; 3: 2-4 schwere Schädigung; 2-4 schwere Schädigung; 5, 6 mittlere Schäden; 5, 6 mittlere Schäden; 7, 8 leichte Schäden; 7, 8 leichte Schäden; 9 Pflanze gedeiht normal, wie unbehandelte Kontrollpflanze. Conditions: after 3 weeks. The procedure:
as §1

The test system of another test is amarantus retrofl. The description is as above. Conditions: after 3 weeks. Details: key: 1 Pflanze abgestorben; 2-4 schwere Schädigung; 3: 2-4 schwere Schädigung; 2-4 schwere Schädigung; 5, 6 mittlere Schäden; 5, 6 mittlere Schäden; 7, 8 leichte Schäden; 7, 8 leichte Schäden; 9 Pflanze gedeiht normal, wie unbehandelte Kontrollpflanze. The procedure: as §1
For another test, the system named is beta vulgaris. The test is described as above. More on the design: key: 1 Pflanze abgestorben; 2-4 schwere Schädigung; 3: 2-4 schwere Schädigung; 2-4 schwere Schädigung; 5, 6 mittlere Schäden; 5, 6 mittlere Schäden; 7, 8 leichte Schäden; 7, 8 leichte Schäden; 9 Pflanze gedeiht normal, wie unbehandelte Kontrollpflanze. Conditions: after 3 weeks. The procedure:
as §1

Another test has as its system chenopodium sp. Described as above. More on the design: key: 1 Pflanze abgestorben; 2-4 schwere Schädigung; 3: 2-4 schwere Schädigung; 2-4 schwere Schädigung; 5, 6 mittlere Schäden; 5, 6 mittlere Schäden; 7, 8 leichte Schäden; 7, 8 leichte Schäden; 9 Pflanze gedeiht normal, wie unbehandelte Kontrollpflanze. To be noted: after 3 weeks. Here is the method:
as §1

The subject of another test is chrysanthemum l. Described as above. Details: key: 1 Pflanze abgestorben; 2-4 schwere Schädigung; 3: 2-4 schwere Schädigung; 2-4 schwere Schädigung; 5, 6 mittlere Schäden; 5, 6 mittlere Schäden; 7, 8 leichte Schäden; 7, 8 leichte Schäden; 9 Pflanze gedeiht normal, wie unbehandelte Kontrollpflanze. Conditions: after 3 weeks. Here is the method:
as §1

For the next test, the system named is sinapis alba. The description is as above. More on the design: key: 1 Pflanze abgestorben; 2-4 schwere Schädigung; 3: 2-4 schwere Schädigung; 2-4 schwere Schädigung; 5, 6 mittlere Schäden; 5, 6 mittlere Schäden; 7, 8 leichte Schäden; 7, 8 leichte Schäden; 9 Pflanze gedeiht normal, wie unbehandelte Kontrollpflanze. To be noted: after 3 weeks. The procedure: as §1

In another test the test system is viola tricolor. The test is described as above. Details: key: 1 Pflanze abgestorben; 2-4 schwere Schädigung; 3: 2-4 schwere Schädigung; 2-4 schwere Schädigung; 5, 6 mittlere Schäden; 5, 6 mittlere Schäden; 7, 8 leichte Schäden; 7, 8 leichte Schäden; 9 Pflanze gedeiht normal, wie unbehandelte Kontrollpflanze. Conditions: after 3 weeks. The procedure: as §1
For test [1], the system named is Baumwollpflanzen der Sorte Deltapine. Description: Desiccation and defoliation action on cotton. Conditions: Aufwandmenge 0,6 kg/ha, nach 14 Tagen; only a few dried-up leaves left on the plant. An excerpt:
Im Gewächshaus wurden Baumwollpflanzen der Sorte Deltapine in Tontöpfen angezogen. Nach abgeschlossener Kapselbildung wurden sie mit wässrigen Zubereitungen der Wirkstoffe in einer Aufwandmenge, die 1,2, 0,6 und 0,3 kg/ha im Feld entspräche, gespritzt. Unbehandelte Pflanzen wurden als Kontrolle belassen. Die Auswertung des Versuches erfolgte 3, 7 und 14 Tage nach Applikation der Versuchssubstanz durch Bestimmen des Grades an Defoliation (% abgefallene Blätter) und an Dessikation (% Austrocknung der an der Pflanze verbleibenden Blätter).

With `COC(=O)CC(=O)C(C)Oc1cc(Oc2ccc(C(F)(F)F)cc2Cl)ccc1Cl` (stereo not drawn) [compound 3, 4-[3'-(2"-Chlor-4"-trifluormethylphenoxy)-6'-chlorphen-oxy]-propanoylessigsäure-methylester], the “Zustand der Pflanzen (EWRC Bewertungsschema)” value (“Zustand der Pflanzen” for short) in the test with Reis (Aufwandmenge 2 kg/ha) worked out at 7; with Reis (Aufwandmenge 4 kg/ha), 6; with Weizen (Aufwandmenge 2 kg/ha), 9; in the test with Weizen (Aufwandmenge 4 kg/ha) it was 9; with abutilon sp (Aufwandmenge 2 kg/ha), 6; in the test on abutilon sp (Aufwandmenge 4 kg/ha), 6. The “Zustand der Pflanzen” value in the test with amarantus retrofl. (Aufwandmenge 2 kg/ha), in the test with amarantus retrofl. (Aufwandmenge 4 kg/ha), in the test on beta vulgaris (Aufwandmenge 2 kg/ha), with beta vulgaris (Aufwandmenge 4 kg/ha), with chenopodium sp. (Aufwandmenge 2 kg/ha) and with chenopodium sp. (Aufwandmenge 4 kg/ha) was 1 throughout. The “Zustand der Pflanzen” value stood at 1 with chrysanthemum l. (Aufwandmenge 2 kg/ha); 1 with chrysanthemum l. (Aufwandmenge 4 kg/ha); 2 in the test with sinapis alba (Aufwandmenge 2 kg/ha); 1 with sinapis alba (Aufwandmenge 4 kg/ha); 3 in the test on viola tricolor (Aufwandmenge 2 kg/ha); 1 with viola tricolor (Aufwandmenge 4 kg/ha). Moreover, the “Wirkung (Defoliation und Dessikation)” value in [1] is listed as 90%.

In the case of `CCNC(=O)CCC(C)Oc1cc(Oc2ccc(C(F)(F)F)cc2Cl)ccc1Cl` (stereo not drawn) [compound 7], the “Zustand der Pflanzen” value in the test with Reis (Aufwandmenge 2 kg/ha) stood at 8; in the test on Reis (Aufwandmenge 4 kg/ha), 8; in the test with Weizen (Aufwandmenge 2 kg/ha), 9; in the test on Weizen (Aufwandmenge 4 kg/ha) it was 9; in the test on abutilon sp (Aufwandmenge 2 kg/ha), 1; with abutilon sp (Aufwandmenge 4 kg/ha), 1. The “Zustand der Pflanzen” value in the test with amarantus retrofl. (Aufwandmenge 2 kg/ha), with amarantus retrofl. (Aufwandmenge 4 kg/ha), in the test on beta vulgaris (Aufwandmenge 2 kg/ha), in the test on beta vulgaris (Aufwandmenge 4 kg/ha), in the test on chenopodium sp. (Aufwandmenge 2 kg/ha) and in the test on chenopodium sp. (Aufwandmenge 4 kg/ha) was 1 each time. The “Zustand der Pflanzen” value is listed as 2 with chrysanthemum l. (Aufwandmenge 2 kg/ha); 1 in the test on chrysanthemum l. (Aufwandmenge 4 kg/ha); 1 in the test with sinapis alba (Aufwandmenge 2 kg/ha); 1 in the test with sinapis alba (Aufwandmenge 4 kg/ha); 2 in the test with viola tricolor (Aufwandmenge 2 kg/ha); 1 in the test with viola tricolor (Aufwandmenge 4 kg/ha). The “Wirkung (Defoliation und Dessikation)” value in [1] turned out to be 90%.

In the case of `CCOC(=O)C=CC(C)Oc1cc(Oc2ccc(C(F)(F)F)cc2Br)ccc1Cl` (stereo not drawn) [compound 15], the “Zustand der Pflanzen” value worked out at 9 with Reis (Aufwandmenge 2 kg/ha); 9 in the test on Reis (Aufwandmenge 4 kg/ha); 9 in the test on Weizen (Aufwandmenge 2 kg/ha); 9 in the test with Weizen (Aufwandmenge 4 kg/ha); 6 with abutilon sp (Aufwandmenge 2 kg/ha); 2 in the test with abutilon sp (Aufwandmenge 4 kg/ha). Also, the “Zustand der Pflanzen” value with amarantus retrofl. (Aufwandmenge 2 kg/ha) came to 1; in the test on amarantus retrofl. (Aufwandmenge 4 kg/ha), 1; in the test with beta vulgaris (Aufwandmenge 2 kg/ha), 2; with beta vulgaris (Aufwandmenge 4 kg/ha) it was 2; in the test on chenopodium sp. (Aufwandmenge 2 kg/ha), 1; in the test with chenopodium sp. (Aufwandmenge 4 kg/ha) it was 1. Besides, the “Zustand der Pflanzen” value with chrysanthemum l. (Aufwandmenge 2 kg/ha) was 2; in the test on chrysanthemum l. (Aufwandmenge 4 kg/ha) it was 1; in the test on sinapis alba (Aufwandmenge 2 kg/ha), 4; in the test with sinapis alba (Aufwandmenge 4 kg/ha), 1; in the test with viola tricolor (Aufwandmenge 2 kg/ha), 2; in the test on viola tricolor (Aufwandmenge 4 kg/ha), 1.

Turning to `CCOC(=O)CCC(C)Oc1cc(Oc2ccc(C(F)(F)F)cc2Br)ccc1Cl` (stereo not drawn) [compound 16], the “Zustand der Pflanzen” value in the test on Reis (Aufwandmenge 2 kg/ha) turned out to be 9; in the test with Reis (Aufwandmenge 4 kg/ha), 9; with Weizen (Aufwandmenge 2 kg/ha) it was 9; with Weizen (Aufwandmenge 4 kg/ha) it was 9; with abutilon sp (Aufwandmenge 2 kg/ha), 5; in the test with abutilon sp (Aufwandmenge 4 kg/ha), 1. The “Zustand der Pflanzen” value in the test on amarantus retrofl. (Aufwandmenge 2 kg/ha) came to 2; in the test with amarantus retrofl. (Aufwandmenge 4 kg/ha) it was 1; with beta vulgaris (Aufwandmenge 2 kg/ha), 1; in the test on beta vulgaris (Aufwandmenge 4 kg/ha) it was 1; in the test with chenopodium sp. (Aufwandmenge 2 kg/ha) it was 1; with chenopodium sp. (Aufwandmenge 4 kg/ha), 1. Also, the “Zustand der Pflanzen” value with chrysanthemum l. (Aufwandmenge 2 kg/ha) amounted to 1; in the test on chrysanthemum l. (Aufwandmenge 4 kg/ha) it was 1; in the test with sinapis alba (Aufwandmenge 2 kg/ha) it was 1; in the test with sinapis alba (Aufwandmenge 4 kg/ha) it was 1; in the test with viola tricolor (Aufwandmenge 2 kg/ha), 2; in the test with viola tricolor (Aufwandmenge 4 kg/ha), 1. Besides, the “Wirkung (Defoliation und Dessikation)” value in [1] was 90%.

As to `CC(CCC(=O)O)Oc1cc(Oc2ccc(C(F)(F)F)cc2Cl)ccc1Cl` (stereo not drawn) [compound 6], the “Zustand der Pflanzen” value with Reis (Aufwandmenge 2 kg/ha) was found to be 8; in the test on Reis (Aufwandmenge 4 kg/ha), 8; in the test on Weizen (Aufwandmenge 2 kg/ha), 9; with Weizen (Aufwandmenge 4 kg/ha), 9; with abutilon sp (Aufwandmenge 2 kg/ha) it was 2; with abutilon sp (Aufwandmenge 4 kg/ha), 1. The “Zustand der Pflanzen” value in the test with amarantus retrofl. (Aufwandmenge 2 kg/ha), in the test with amarantus retrofl. (Aufwandmenge 4 kg/ha), in the test with beta vulgaris (Aufwandmenge 2 kg/ha), in the test with beta vulgaris (Aufwandmenge 4 kg/ha), with chenopodium sp. (Aufwandmenge 2 kg/ha) and in the test on chenopodium sp. (Aufwandmenge 4 kg/ha) was 1 each time. In addition, the “Zustand der Pflanzen” value came out at 2 in the test with chrysanthemum l. (Aufwandmenge 2 kg/ha); 1 with chrysanthemum l. (Aufwandmenge 4 kg/ha); 1 in the test on sinapis alba (Aufwandmenge 2 kg/ha); 1 with sinapis alba (Aufwandmenge 4 kg/ha); 1 with viola tricolor (Aufwandmenge 2 kg/ha); 1 with viola tricolor (Aufwandmenge 4 kg/ha).
